The text below walks through data of patent publication US20220364065A1, “COMPOSITION FOR REMOVING PLURIPOTENT STEM CELLS AND METHOD OF REMOVING PLURIPOTENT STEM CELLS” (NATIONAL UNIVERSITY CORPORATION HOKKAIDO UNIVERSITY, priority 2018, published 2022).

SMILES strings stand for the structures.

For data set [1], the system named is teratomas formed from mouse ES cells. Kind of data set: Anti-teratoma activity in NOD/SCID mice, ES cell-derived tumors. It is filed as in vivo. As to the method: For tumors, 10-μm-thick sections were prepared and immunostained using the methods described by Kondo T. and Raff M., EMBO J. 2000; 19(9): 1998-2007, and Takanaga H, et al., Stem Cells. 2009; 27(1): 165-174. The following antibodies were used for this immunostaining.
TOCRIS) PBS solution was administered daily intraperitoneally to mice bearing subcutaneous tumors. Five days after intraperitoneal administration, the mice were sacrificed to death, and the tumors were removed and photographed for pathological analysis according to the method described in Tsukamoto Y, et al., Stem Cells. 2016; 34(8): 2016-2025.
Next, sections of these tumors were prepared, immunolabeled for the proliferation marker Ki67, pluripotent stem cell markers (Oct4 and Nanog), and differentiation markers (ATF, βIII tubulin, and SMA), and observed.

Data set [2] has as its system mouse neural stem cells and mouse iPS cells. The experiment in a line: Mixed culture of neural stem cells and iPS cells, Nestin/Nanog immunostaining. It is filed as cell-based. Conditions: 10 μM BRQ, 3 days. As to the method: (§1) The cells were fixed and immunostained as described in Kondo et al., Genes Dev. 2004, Vol. 18, Issue 23, pp. 2963-72. […] For the culture of mNSCs, PDL+fibronectin-coated ones were used (see Johe KK et al., Genes Dev. 1996, Vol. 10, Issue 24, pp. 3129 to 3140). For the culture of ES cells and iPS cells, gelatin-coated ones were used.
(§2) For immunostaining, the cells were first washed once with PBS, then fixed by adding 4% paraformaldehyde and incubating for 10 minutes at room temperature. The cells were replaced with PBS containing 0.3% Triton X100 and incubated for 5 minutes at room temperature, then replaced with PBS containing 0.3% Triton X100 and 10% FCS (blocking solution) and incubated for 30 minutes at room temperature. The solution was replaced with primary antibody solution diluted in blocking solution and incubated for 2 hours at room temperature. After washing three times with PBS, secondary antibody and DAPI solution diluted with blocking solution were added and incubated at room temperature for 2 hours. After washing three times with PBS, the cells were sealed with anti-fading agent (manufactured by DAKO, code number: 53023) and observed under a microscope. […] In addition, fluorescence images were acquired with an Axiolmager M1 microscope (manufactured by Carl Zeiss).
The cells were then analyzed by immunostaining as described above.

Data set [3] relates to mouse iPS cells. Kind of data set: Quantitative RT-PCR of Sox2, Oct4, Nanog, iPS cells. Type of data set: cell-based. Conditions: 10 μM BRQ, 2 days. As to the method:
First, total RNA was prepared from cells using the RNeasy kit (manufactured by Qiagen), and cDNA was synthesized using the Transcriptor First Strand cDNA Synthesis Kit (manufactured by Roche Applied Science).
Then, the cDNA was used as a template, and Thunderbird Cyber qPCR Mix (manufactured by TOYOBO) and Step One Plus (manufactured by Thermo Fisher Scientific) were used to perform real-time PCR. The reaction conditions were set at 95° C. for 15 seconds and 60° C. for 30 seconds for 40 cycles, and the oligonucleotide primers shown below were used to amplify each target gene.
Note that the expression level of each target gene detected in this way was normalized by the relative quantification method (delta delta Ct method) based on the expression level of 18S ribosomal RNA.

Data set [4] concerns mouse ES cells. The experiment in a line: Immunostaining of pluripotent stem cell markers (Sox2, Nanog, Oct4), ES cells. It is filed as cell-based. Here is the method:
The cells were fixed and immunostained as described in Kondo et al., Genes Dev. […] For the culture of ES cells and iPS cells, gelatin-coated ones were used.
For immunostaining, the cells were first washed once with PBS, then fixed by adding 4% paraformaldehyde and incubating for 10 minutes at room temperature. The cells were replaced with PBS containing 0.3% Triton X100 and incubated for 5 minutes at room temperature, then replaced with PBS containing 0.3% Triton X100 and 10% FCS (blocking solution) and incubated for 30 minutes at room temperature. The solution was replaced with primary antibody solution diluted in blocking solution and incubated for 2 hours at room temperature. After washing three times with PBS, secondary antibody and DAPI solution diluted with blocking solution were added and incubated at room temperature for 2 hours. […] Note that the cell nuclei were visualized by contrast staining with DAPI solution (1 μg/mL, manufactured by Dojindo, product code: D523). In addition, fluorescence images were acquired with an Axiolmager M1 microscope (manufactured by Carl Zeiss).
LMB is a specific inhibitor of CRM1, also known as Exportin 1.

Data set [5] concerns mouse ES cells. The experiment in a line: Teratoma formation from pretreated ES cells in NOD/SCID mice. Type of data set: in vivo. The conditions noted are these: ES cells pretreated 2 days with 10 μM BRQ, subcutaneous in NOD/SCID mice, 4 weeks. As to the method:
The viable cells (1×10^6) were suspended in 50 μl of Matrigel (manufactured by BD Biosciences) and injected subcutaneously into the buttocks of 5-8-week-old NOD/SCID mice anesthetized with 10% pentobarbital. Four weeks after the injection, the mice were sacrificed to death, and the tumors were removed and photographed for their size measurement according to the method described in Tsukamoto Y, et al., Stem Cells. 2016; 34(8): 2016-2025. Based on the measurement values obtained, the volume of the tumors was calculated by the following formula.
Volume of tumor (cm^3)=major diameterxminor diameterxminor diameter×½.
Then, 4 weeks after transplantation, the tumors were removed and observed.

Another data set concerns mouse neural stem cells. Kind of data set: Sox2 immunostaining, neural stem cells. It is filed as cell-based. The conditions noted are these: 10 μM BRQ, 24 hours. Here is the method: as §1
as §2, with “Zeiss). […]” for “Zeiss).”

In data set [6] the test system is mouse iPS cells. The experiment in a line: Cell proliferation and cell death (BrdU uptake, Ki67, Casp3 immunostaining), iPS cells. It is filed as cell-based. The conditions noted are these: BRQ 2 days. Here is the method:
as §1
as §2, with “Zeiss). […]” for “Zeiss).”

Setting [7] is: ES cells, 2 days, BRQ 10 μM (ZVAD 100 nM where added).
[8] abbreviates: mouse ES cells, 10 μM BRQ, 24 hours.

As to `Cc1c(-c2ccc(-c3ccccc3F)cc2)nc2ccc(F)cc2c1C(=O)O` [BRQ, 6-fluoro-2-(2′-fluoro-1,1′-biphenyl-4-yl)-3-methyl-4-quinoline-sodium carboxylate], the “number of Oct4-positive cells and Nanog-positive cells in tumors” value in data set [1] (ES cell-derived tumors) is on record as “significantly decreased”. For the same molecule, the tumor proliferation result in data set [1] (ES cell-derived tumors, BRQ intraperitoneally) is “suppressed”. Further, in data set [1] (ES cell-derived tumors, BRQ- vs DMSO-treated), the “cells expressing differentiation markers (ATF, βIII tubulin, SMA) in tumors” value was “similarly contained in both tumors”. The “Ki67-positive proliferating cells in tumors” value in data set [1] (ES cell-derived tumors, compared to DMSO-treated tumors) was “significantly reduced”. The molecule also yielded a sizes of teratomas in data set [1] (ES cell-derived, BRQ intraperitoneally (DMSO control 0.55 cm^3)) of 0.12 cm^3. For the same molecule, in data set [2] (ES cell medium), the “iPS cells (Nanog) in mixed culture” value is on record as “lost”. In addition, the “cytotoxicity to neural stem cells (Nestin) in mixed culture” value in data set [2] (mixed with iPS cells) is recorded as “no obvious cytotoxicity”. Besides, the “expression levels of marker genes (Sox2, Oct4, Nanog)” value in the data set with mouse iPS cells [3] is given as “generally decreased”. For the same molecule, in the data set on mouse ES cells [4] (setting [7]), the Nanog-positive cells was 6% and the Oct4-positive cells is 2%. In addition, in the data set on mouse ES cells [4] (setting [8]), the “cells in which expression of Sox2 was not observed” value is on record as “about 30%” and the “inhibition of cell proliferation or cell death” value is on record as “inhibition of cell proliferation or cell death was already observed”. Also, the “subcellular localization of Nanog” value in the data set with mouse ES cells [4] (mouse ES cells, 10 μM BRQ, 2 days) was “distributed in the cytoplasm”. Further, the “tumor formation from pretreated cells” value with mouse ES cells [5] is “did not proliferate”. In the data set on mouse neural stem cells, the “changes in proliferation/death and Sox2 expression” value is listed as “no similar changes were observed”. In the data set with mouse iPS cells [6], the “CASP3 activation (Casp3 immunostaining)” value is reported as “strongly activated” and the “cell proliferation (BrdU uptake assay)” value is “reduced the proliferation”.
